In US20160137639A1, “TRIAZOLE-ISOXAZOLE COMPOUND AND MEDICAL USE THEREOF” (JAPAN TOBACCO INC., priority 2012, published 2016):
Where two headings read alike, the source gives them in different places.

Legend:
mouse RORγ = biological target: T1, mouse RORγ (Mus musculus, UniProt P51450); assay: Luciferase reporter gene assay of inhibitory effect against RORγ transcriptional activity (GAL4-mRORγ plasmid in CHO cells); format: cell-based
T1 construct: mouse, NM_011281.2 and from Ile251 to Lys516; expressed in transfected cells; host or cells: CHO cells (transient co-transfection with pG5-Luc reporter)
T1 sequence (P51450 251-516): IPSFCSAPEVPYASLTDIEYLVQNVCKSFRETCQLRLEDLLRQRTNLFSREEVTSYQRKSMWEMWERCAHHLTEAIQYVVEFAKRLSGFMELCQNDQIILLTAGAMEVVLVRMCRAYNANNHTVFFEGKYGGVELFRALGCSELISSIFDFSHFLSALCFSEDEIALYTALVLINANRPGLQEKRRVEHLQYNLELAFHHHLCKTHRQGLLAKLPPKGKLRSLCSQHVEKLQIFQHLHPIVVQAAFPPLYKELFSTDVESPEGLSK
Outline: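 CHO cells transiently co-transfected with GAL4-mouse RORγ LBD (Ile251–Lys516) and GAL4-dependent luciferase reporter; eight compound concentrations, 0.1% DMSO, 2 days at 37 °C. Luminescence as %-of-vehicle control; EC50 by curve fit, cytotoxic concentrations excluded.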

human RORγ = biological target: T2, human RORγ (Homo sapiens, UniProt P51449); assay: Luciferase reporter gene assay of inhibitory effect against RORγ transcriptional activity (GAL4-hRORγ plasmid in CHO cells); format: cell-based
T2 construct: human, NM_005060.3 and from Ser253 to Lys518; expressed in transfected cells; host or cells: CHO cells (transient co-transfection with pG5-Luc reporter)
T2 sequence (P51449 253-518): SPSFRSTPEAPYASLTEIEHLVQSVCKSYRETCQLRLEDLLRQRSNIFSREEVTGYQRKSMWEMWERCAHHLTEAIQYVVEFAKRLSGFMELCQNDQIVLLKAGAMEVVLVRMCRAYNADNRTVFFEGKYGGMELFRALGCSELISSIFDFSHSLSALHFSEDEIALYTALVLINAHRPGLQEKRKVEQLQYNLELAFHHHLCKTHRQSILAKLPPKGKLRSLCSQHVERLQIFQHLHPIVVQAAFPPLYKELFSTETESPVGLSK

Row | SMILES | EC50 (mouse RORγ; read-out: LUC EC50 (μM) mRORg) | EC50 (human RORγ; read-out: LUC EC50 (μM) hRORg) | EC50 (mouse RORγ; read-out: LUC EC50 mRORg) | EC50 (human RORγ; read-out: LUC EC50 hRORg) | also measured
1 | Cc1c(Cl)cccc1NC(=O)CCc1nnc(CNC(=O)C(C)C)n1C1CC1 [Example F-221] | > 3 µM | > 3 µM |  |  | 
2 | Cc1ccc(NC(=O)[C@H]2CCC(=O)N(C)[C@@H]2c2nnc(CCCC(C)(C)C)n2C2CC2)c(C)c1 [Example F-322] | < 3 µM | < 3 µM |  |  | 
3 | Cc1ccc(NC(=O)[C@H]2CN(C(=O)CN(C)C)C[C@@H]2c2nnc([C@H]3C[C@@H](CC(C)C)C3)n2C2CC2)c(C)c1 [Example F-657] |  |  | < 3 µM | > 3 µM | 
4 | CCn1c(C2Cc3ccccc3C2)nnc1[C@H]1C[C@@H]1C(=O)Nc1cccc2ccccc12 (racemic) [Example F-26] | > 3 µM | > 3 µM |  |  | 
5 | Cc1ccc(NC(=O)C[C@@H](CCO)c2nnc([C@H]3C[C@@H](CC(C)C)C3)n2C2CC2)c(C)c1 [Example F-360] | > 3 µM | > 3 µM |  |  | 
6 | COc1cc(C)ccc1CNC(=O)CC(CCO)c1nnc(CCC(C)C)n1C1CC1 (racemic) [Example F-176] | > 3 µM | > 3 µM |  |  | 
7 | Cc1cc(NC(=O)C[C@H](CC(=O)O)c2noc([C@H]3C[C@@H](CC(C)C)C3)c2C2CC2)n(C)n1 [Example F-669] |  |  | < 3 µM | > 3 µM | 
8 | C=CCCCCc1onc(CCC(=O)Nc2cccc(C=C)c2)c1C1CC1 [Example F-738] |  |  | > 3 µM | > 3 µM | 
9 | Cc1ccc(NC(=O)[C@H]2CC(F)(F)C[C@@H]2c2nnc(-c3cc(CC(C)C)on3)n2C2CC2)c(C)c1 (racemic) [Example F-570] |  |  | > 3 µM | < 3 µM | 
10 | CCC(CC)C[C@H]1C[C@@H](c2nnc(CCC(=O)Nc3ccc(C)cc3C)n2C2CC2)C1 [Example F-496] |  |  | < 3 µM | < 3 µM | 
11 | Cc1ccc(NC(=O)CCc2nnc(CCC3CCC(F)(F)CC3)n2C2CC2)c(C)c1 [Example F-256] | < 3 µM | < 3 µM |  |  | 
12 | CCOC(=O)CCc1c(CCC(=O)Nc2ccc(C)cc2C)noc1[C@H]1C[C@@H](CC(C)C)C1 [Example F-663] |  |  | > 3 µM | > 3 µM | 
13 | Cc1ccc(C(F)(F)F)cc1NC(=O)CCc1nnc(CCC(C)C)n1C1CC1 [Example F-151] | > 3 µM | > 3 µM |  |  | 
14 | Cc1ccc(NC(=O)CCc2noc([C@H]3C[C@@H](CC(C)C)C3)c2C2CC2)c(C)c1 [Example F-665] |  |  | < 3 µM | < 3 µM | 
15 | Cc1ccc(NC(=O)[C@H]2CCCN(C(=O)CO)[C@@H]2c2nnc(CCCC(C)(C)C)n2C2CC2)c(C)c1 [Example F-308] | < 3 µM | < 3 µM |  |  | 
16 | CCC(=O)N1C[C@H](C(=O)Nc2ccc(C)cc2C)[C@@H](c2nnc(CCCC(C)(C)C)n2C2CC2)C1 (racemic) [Example F-400] | < 3 µM | < 3 µM |  |  | 
17 | Cc1ccc(NC(=O)C[C@H](CCO)c2nnc(C3CC4(CCC(F)(F)CC4)C3)n2C2CC2)c(C)c1 [Example F-619] |  |  | < 3 µM | < 3 µM | 
18 | CC(=O)N1C[C@H](C(=O)Nc2ccc(C)cc2C)[C@@H](c2nnc(-c3ccc(C(C)C)cc3)n2C2CC2)C1 [Example F-411] | < 3 µM | < 3 µM |  |  | 
19 | Cc1ccc(NC(=O)C[C@H](OCC(F)(F)F)c2nnc([C@H]3C[C@@H](CC(C)C)C3)n2C2CC2)c(C)c1 [Example F-609] |  |  | < 3 µM | < 3 µM | 
20 | CC(C)Cn1c(CCC(=O)Nc2cccc3ccccc23)nnc1C1Cc2ccccc2C1 [Example F-11] |  |  |  |  | EC50 (mouse RORγ; LUC EC50 (μM) mRORg): > 3 µM; EC50 (human RORγ; LUC EC50 (μM) hRORg): > 3 µM
21 | Cc1ccc(NC(=O)C[C@H](CC(C)C)c2nnc([C@H]3C[C@@H](CC(C)C)C3)n2C2CC2)c(C)c1 [Example F-590] |  |  | < 3 µM | < 3 µM | 
22 | CC(C)CCc1nnc(CCC(=O)NCc2ccc(Cl)cc2)n1C1CC1 [Example F-122] | > 3 µM | > 3 µM |  |  | 
